Key:
[1] = Randomized, placebo controlled, double blind intravenous citrulline study (77 patients); assay type: in vivo, children; conditions: bolus plus infusion protocol, hemofiltration during CPB
Source text: An intravenous citrulline study conducted was a randomized, placebo controlled, double blind study with the primary clinical outcome being length of mechanical ventilation postoperatively and secondarily the incidence of postoperative pulmonary hypertension between the 2 treatment groups (citrulline vs placebo).
A total of 77 patients were enrolled at Vanderbilt Children's Hospital. Patients were screened based on the surgical schedule. Based on this schedule, patients undergoing one of the 5 planned cardiac surgeries included in this study were screened (patients undergoing the Norwood procedure are now excluded at the recommendation of the DSMB).
The study was stopped in preparation for a larger multicenter randomized placebo controlled trial. […] These hemofiltration techniques had changed during the study, and the investigators were not aware of these changes.

[2] = Safety and pharmacokinetics of intravenous citrulline, open label dose escalation in children undergoing repair of congenital heart defects; assay type: in vivo; conditions: for concentration at 4 h: read-out: 4 hour trough citrulline level
Method: The initial goal was to test the safety and pharmacokinetics of three doses of intravenous citrulline in children undergoing surgical repair of specific congenital heart defects. […] An adverse drop in mean arterial pressure was defined as a greater than a twenty percent decrease from baseline. The baseline postoperative mean arterial blood pressure was calculated as the average of mean arterial blood pressure measurements collected every 5 minutes for the 30 minutes immediately preceding the administration of the postoperative dose or infusion.
The original doses selected were 200, 400, and 600 mg/kg based on data from previous animal studies. The original study design was a 4 arm study using the 3 doses and a placebo control.
After pharmacokinetic modeling, the study design was changed to a bolus dose of 150 mg/kg given in the OR on cardiopulmonary bypass followed 4 hours later by a continuous infusion of 9 mg/kg/hour for 48 hours. Another 9 patients were enrolled. The mean plasma levels of both citrulline and arginine in study patients (+IV citrulline) compared to patients in the observational cohort (−IV citrulline) are depicted in FIGS. 11A-B.

[3] = Phase IB single-blind, randomized, placebo controlled PK and safety study of IV L-citrulline in children and infants undergoing CPB; assay type: in vivo
Method: A multicenter, Phase IB single-blind, randomized, placebo controlled study was conducted to determine the pharmacokinetics (PK) and safety of IV L-citrulline administration to children and infants undergoing cardiopulmonary bypass (CPB) for surgical repair of congenital heart defects.
The primary objective of the study was to determine if a revised protocol of intravenous (IV) L-citrulline delivery given peri-operatively achieved a plasma citrulline level of >100 μmol/L in the group given citrulline and to compare that to citrulline levels in the placebo group, during follow-up in children undergoing surgical repair of an atrial septal defect (ASD) and/or a ventricular septal defect (VSD) or a partial or complete atrioventricular septal defect (AVSD).
Twenty two (22) patients were enrolled and treated. The patients received study drug or placebo infusion according to a fixed dosing protocol starting at the initiation of CPB until 48 hours postoperatively or until removal of the arterial line. Study participation ended at discharge or at Day 28 whichever came first. The dosing regimen was designed to maintain plasma citrulline levels in the face of extended hemofiltration.
Plasma citrulline concentration levels were the primary PK variable; these were assessed in blood samples collected at 7 perioperative time points. Secondary PK variables were concentrations of arginine and nitric oxide (NO) metabolites in the same sample set. PK values were compared between groups.
Subjects received an IV citrulline bolus of 150 mg/kg or placebo at the initiation of CPB, followed by the addition of L-citrulline at a concentration of 200 μmol/L or placebo to the filtration or hemoconcentration replacement fluid used during CPB. A citrulline bolus of 20 mg/kg was administered 30 minutes after decannulation from CPB, immediately followed by a 9-mg/kg/hr continuous infusion of citrulline or placebo for 48 hours.
Primary safety assessments included hemodynamic monitoring to identify clinically significant hypotension using age-specific limits. Adverse event information was collected, and postoperative bleeding was recorded.
Further safety, laboratory, and clinical assessments were performed from baseline to discharge, secondary clinical variables included: postoperative mechanical ventilation, duration of total respiratory support, hemodynamic improvement, postoperative PVT by echocardiogram, serum creatinine and liver enzymes, inotrope score, duration of chest tube usage, length of intensive care unit stay, length of hospitalization and survival.
The duration of postoperative invasive mechanical ventilation was derived as the time in hours from separation from cardiopulmonary bypass until endotracheal extubation. If a patient required reintubation within 24 hours after extubation, the reintubation time was added in the main analysis. In a second analysis, the reintubation time was not included.

[4] = Revised dosing protocol for cardiac surgery, 22 patients randomized to placebo and citrulline; assay type: in vivo, children
Source text: The study in this example was undertaken to test a revised dosing protocol designed to achieve and maintain therapeutic citrulline levels in the face of ultrafiltration and crystalloid replacement. […] The study recruited 22 patients randomized in equal numbers of 11 patients each to placebo and citrulline arms. Early in the course of the study, it was recognized that one of the two participating centers routinely extubated all patients in the operating room immediately following cessation of cardiopulmonary bypass. This precluded use of the duration of mechanical ventilation as an endpoint. Instead, a post-hoc analysis was applied using the duration of all forms of ventilatory support as a possible endpoint. […] In contrast, contingency table analysis, shown in Table 5, did achieve borderline significance. Overall, the results are considered to represent a strong trend.

[5] = Perioperative oral citrulline supplementation in children undergoing congenital cardiac surgery; assay type: in vivo
Method: 40 patients with one of the 5 surgical diagnoses identified above were randomized to receive 5 doses of oral citrulline (1.9 grams/kg) vs. placebo. The first dose was administered immediately prior to surgery and the second dose immediately on arrival in the Pediatric ICU after surgery followed every 12 hours×3 doses.

[6] = Perioperative intravenous L-citrulline pharmacokinetics, single bolus dose escalation in children undergoing congenital cardiac surgery; assay type: in vivo
Method: To determine clearance of a single bolus dose of IV citrulline and optimal dose frequency, a dose escalation design using three concentrations of IV citrulline: 50, 100, & 150 mg/kg was utilized. The dose of citrulline was given in the operating room immediately after cannulation and initiation of cardiopulmonary bypass. The overall goal was to achieve a sustained citrulline level of 100 μmol/L or more up to four hours after the initial dose. The four hour time point was selected to allow for the surgical procedure to be completed and the patient to return to the ICU postoperatively before further dosing.
Patients were then enrolled using this revised protocol of a combination of a bolus dose of 150 mg/kg in the OR on CPB and a continuous infusion of 9 mg/kg/hr started postop in the PICU at 4 hours after the initial bolus dose.

[7] = Intravenous citrulline in piglets: safety and effect on serum arginine levels; assay type: in vivo, Duroc swine; conditions: 600 mg/kg IV
Method: The objective was to assess the safety of intravenous citrulline and its effect on serum arginine levels in piglets. A total of 9 Duroc swine, aged 5-21 days, with a target minimum weight of 4 kg were utilized. All piglets underwent anesthetic induction and tracheostomy. Central lines were placed in the femoral artery and femoral vein and hemodynamics monitored continuously. Citrulline (600 mg/kg IV) was administered to 5 piglets. Saline was given to control animals. Serum amino acids were drawn before and each hour after citrulline administration.

[8] = bolus 150 mg/kg at beginning of surgery, 4 hours later continuous infusion 9 mg/kg/hr
[9] = original doses 200, 400, and 600 mg/kg intravenous, five patients
[10] = revised dosing protocol, contingency table, 11 patients per arm

NC(=O)NCCCC(N)C(=O)O (stereo not drawn) [citrulline, 2-amino-5-(carbamoylamino)pentanoic acid]
Reaching the sustained target plasma citrulline level of 100 μmol/L [1]: a majority who received citrulline did not reach the therapeutic sustained target plasma citrulline level | Adverse side effects ([2]; 50 mg/kg intravenous): No adverse side effects were noted | Peak citrulline level ([2]; 50 mg/kg intravenous, patients 6 and 8): approximately 220 μmol/L | Adverse side effects ([2]; 100 mg/kg intravenous): no adverse side effects were noted | Peak citrulline level ([2]; 100 mg/kg intravenous, patients 9 & 10): 375 µmol/L | Peak citrulline level ([2]; 150 mg/kg intravenous, patients 13-16): 660 µmol/L | Adverse side effects [2, 8]: No adverse side effects were noted | Sustained plasma citrulline levels [2, 8]: around 100 μmol/L | Significant adverse events ([2]; bolus 150 mg/kg on CPB, 4 hours later infusion 9 mg/kg/hour for 48 hours): one significant adverse event but it was not related to the use of IV citrulline | concentration at 4 h ([2]; human, plasma, 50 mg/kg intravenous, patients 6 and 8): 40 µM | concentration at 4 h ([2]; human, plasma, 100 mg/kg intravenous, patients 9 & 10): 50 µM | concentration at 4 h ([2]; human, plasma, 150 mg/kg intravenous, patients 13-16): 80 µM | half-life ([2]; human, plasma, intravenous bolus 50, 100, 150 mg/kg): ~1.42 h | Adverse effects [2, 9]: no adverse effects were noted | Plasma levels achieved [2, 9]: very high | Plasma citrulline levels ([3]; bolus 150 mg/kg, 200 μmol/L in filtration fluid, bolus 20 mg/kg, infusion 9 mg/kg/hr for 48 hours): > 100 µmol/L | Sustained plasma citrulline levels ([3]; bolus 150 mg/kg, 200 μmol/L in priming and hemofiltration fluid, bolus 20 mg/kg, infusion 9 mg/kg/hr for 48 hours): around 100 μmol/L | Duration of invasive mechanical ventilation, Kaplan-Meier analysis versus placebo ([3]; excluding re-intubation, Wilcoxon p=0.0222, ANOVA t-test p=0.0317): reduced duration of mechanical ventilation | Mean duration of invasive mechanical ventilation ([3]; including the reintubation time, placebo 37 hours): 5 h | Composite durations of mechanical ventilation and inotrope therapy versus placebo ([3]; longer of the two durations, surrogate for ICU stay): shorter composite durations of mechanical ventilation and inotrope therapy | Patients extubated in the operating room ([3]; one site, 6 patients per group, placebo 33%): 100% | Systolic and diastolic blood pressure versus placebo ([4]; FIG. 18A): No significant change in systolic and diastolic blood pressure | Mean arterial pressure versus placebo ([4]; FIG. 18B): No significant change in the mean arterial pressure | Inotrope scores versus placebo ([4]; particularly from 15 to 18 hours onward following ICU admission): markedly better inotrope scores | Adverse effects upon hemodynamic parameters ([4]; revised dosing protocol): No adverse effects upon hemodynamic parameters were observed | Number of patients with Duration of Respiratory Support >50 hours [4, 10]: 2 | Number of patients with Duration of Respiratory Support ≤50 hours [4, 10]: 7 | Tolerability / adverse events of oral citrulline ([5]; 1.9 g/kg before CPB, postoperatively and every 12 hours for 48 hours): well tolerated with no evidence of significant adverse events | Plasma citrulline levels ([5]; 5 doses of 1.9 grams/kg, vs. placebo 26, p=0.013): 36 µmol/L | Adverse effects including hypotension ([6]; IV bolus 50, 100, 150 mg/kg): no adverse effects including hypotension | ½ life of the bolus doses ([6]; IV bolus 50, 100, 150 mg/kg): 60 to 90 min | concentration at 4 h ([6]; human, plasma, 150 mg/kg IV bolus after initiation of CPB, read-out: Four hour citrulline levels): ~100 µM | Hemodynamic instability [7]: No hemodynamic instability was observed | Time of peak serum arginine levels following intravenous citrulline administration [7]: 1 to 2 h | Arginine Levels Following intravenous citrulline ([7]; 1 hour post): 535.0 µmol/L | Mean Arterial Blood Pressures Following intravenous Citrulline ([7]; 1 hour post): 67.4 mmHg | Arginine Levels Following intravenous citrulline ([7]; 2 hours post): 559.8 µmol/L | Mean Arterial Blood Pressures Following intravenous Citrulline ([7]; 2 hours post): 64.8 mmHg | Arginine Levels Following intravenous citrulline ([7]; 3 hours post): 498.4 µmol/L | Mean Arterial Blood Pressures Following intravenous Citrulline ([7]; 3 hours post): 62.2 mmHg | Arginine Levels Following intravenous citrulline ([7]; Baseline): 131.5 µmol/L | Mean Arterial Blood Pressures Following intravenous Citrulline ([7]; Pre-dose): 67.0 mmHg
